The structures appear in SMILES notation.

For assay [1], the target named is T1, PPP1R15A-PP1 complex (Homo sapiens, UniProt O75807).
T1 construct: the cDNAs encoding amino acids 325-636 of PPP1R15A; made in house; host or cells: R15A fragment: E. coli BL21-Gold; BAP-PP1γ: Sf9 insect cells (baculovirus)
Briefly: SPR steady-state binding to R15A-PP1c holophosphatase on streptavidin chip. The conditions noted are these: steady-state affinity. The procedure: (§1) The streptavidin coated surface was activated by 1 min injection with a solution of 50 mM NaOH and 1 M NaCl. Biotin-PP1 was diluted in the running buffer (50 mM Tris pH 7.5, 100 mM NaCl, 0.1 mM EGTA, 1 mM MnCl2, 0.05% Tween 20) and injected at approximately 300 nM concentration directly to streptavidin coated surface for 100 sec or to reach immobilization level of biotin-PP1 corresponding to ˜7000 RU. A blank immobilization was performed for one of the SA sensor chip surface to use as a reference.
(§2) With minor deviations, the same procedure and conditions were used in all binding experiments. Small molecules were stored as 50 mM stock solutions in 100% DMSO. Prior to determining binding constants, serial dilutions of either 12 or 8 concentrations of the compounds were prepared in the running buffer in a 96-well plate. […] Then, without regenerating the surface, the compound dilution series was injected onto the surface of the chip Sensorgrams were analyzed using the Biacore T200 evaluation software and the binding constants determined based on a steady-state model. Kinetic experiments are carried out using different concentrations of the compound and their respective equilibrium binding levels determined.
(§3) Surface Plasmon Resonance (SPR) was used to measure the binding affinity of compounds to the PPP1R15A/B-PP1 phosphatase complex. Biotin acceptor peptide (BAP) was fused to the N-terminus of PP1γ, which enables the biotinylation of the BAP-tagged protein in Sf9 insect cells. After purification the BAP-PP1γ protein was captured on a streptavidin sensor chip (SA-chip, GE healthcare) to a response level of ˜5.000 RU. Using controlled biotinylation enables orientated and uniform immobilization on the sensor chip surface. The PP1γ was then used to capture PPP1R15A/B and form a holophosphatase complex on the surface of the streptavidin chip. This complex can then be used to test binding of compounds. 10 μM PPP1R15A/B protein concentration was used to form the holophosphatase complex during a 80 s injection. […] After the concentration series (8 or 12 concentrations) is completed the surface is regenerated with 3 M NaCl and we can capture R15A/B again to form a fresh holophosphatase complex to measure a binding of another compound concentration series. Analysing the level of equilibrium binding as a function of concentration gives interaction affinities or steady-state binding affinity (KD).
(§4) The streptavidin coated surface was activated by 1 minute injection with a solution of 50 mM NaOH and 1 M NaCl three times at a flow rate of 10 μl/min. bio-GBZ or bio-PP1c was diluted in the running buffer (50 mM Tris pH 7.5, 100 mM NaCl, 0.1 mM EGTA, 0.05% Tween 20, 0.1% DMSO) and injected at approximately 300 nM concentration at a flow rate of 10 μl/min directly to streptavidin coated surface to reach immobilization level of bio-GBZ or bio-PP1c corresponding to ˜200 and 6000 RU, respectively. A blank immobilization was performed for one of the SA sensor chip surface to use as a reference.
(§5) With minor deviations, the same procedure and conditions were used in all binding experiments. Small molecules were stored as 50 mM stock solutions in 100% DMSO. Prior to determining binding constants, serial dilutions of either 12 or 8 concentrations of the compounds were prepared in the running buffer in a 96-well plate. […] This was followed by 1 minute stabilization period, to wash off any unspecific binding. […]

Assay [2] addresses T2, PPP1R15B-PP1 complex (Homo sapiens, UniProt Q5SWA1).
T2 construct: 340-698 of PPP1R15B were His-tagged and cloned into pMAL-c5x; made in house; host or cells: R15B fragment: E. coli BL21-Gold; BAP-PP1γ: Sf9 insect cells (baculovirus)
Briefly: SPR steady-state binding to R15B-PP1c holophosphatase on streptavidin chip. The conditions noted are these: for Kd: SPR, steady-state affinity. As to the method:
as §1, §2, §3, §4
With minor deviations, the same procedure and conditions were used in all binding experiments. Small molecules were stored as 50 mM stock solutions in 100% DMSO. Prior to determining binding constants, serial dilutions of either 12 or 8 concentrations of the compounds were prepared in the running buffer in a 96-well plate. […] This was followed by 1 minute stabilization period, to wash off any unspecific binding. Then, without regenerating the surface, the compound dilution series was injected onto the surface of the chip at a flow rate of 30 μl/min for 1 minute, followed by 2 minutes dissociation time. After each dilution series the surface was regenerated using 3 M NaCl for 90 seconds. […] In order to be able to correct for small variations in DMSO concentration between samples, eight solvent samples ranging from 0.06 to 8% DMSO were injected every 50th cycle. The flow cell temperature was 10° C.

For assay [3], the target named is T3, PP1c (Homo sapiens, UniProt P36873). Briefly: PP1c catalytic activity assay (EnzChek). The format is biochemical. The conditions noted are these: purified PP1c 30 nM, 30 minutes at 4° C. As to the method: Residual activity of PP1c was then measured using the EnzChek Phosphatase Assay Kit (Thermo Fisher Scientific) according to the supplier's instructions.
T3 sequence (P36873 whole entry): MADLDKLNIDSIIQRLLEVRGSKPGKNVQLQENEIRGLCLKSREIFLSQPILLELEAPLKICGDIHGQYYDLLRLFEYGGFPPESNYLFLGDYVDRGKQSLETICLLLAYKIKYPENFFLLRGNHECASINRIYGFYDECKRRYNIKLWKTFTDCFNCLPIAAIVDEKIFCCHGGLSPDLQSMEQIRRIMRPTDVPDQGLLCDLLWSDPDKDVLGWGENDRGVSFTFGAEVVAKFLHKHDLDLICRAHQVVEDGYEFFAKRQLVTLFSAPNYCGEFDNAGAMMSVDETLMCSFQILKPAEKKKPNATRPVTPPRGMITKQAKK

Assay [4] addresses T3, PP1c. Briefly: SPR binding to PP1c alone immobilized on chip. The conditions noted are these: PP1c alone, read-out: affinity (KD) for PP1. As to the method: as §4
as §5, with “binding. Then, without regenerating the surface, the compound dilution series was injected onto the surface of the chip at a flow rate of 30 μl/min for 1 minute, followed by 2 minutes dissociation time.” for “binding.”
Kinetic experiments are carried out using different concentrations of the compound and their respective equilibrium binding levels determined.

T2 sequence (Q5SWA1 340-698): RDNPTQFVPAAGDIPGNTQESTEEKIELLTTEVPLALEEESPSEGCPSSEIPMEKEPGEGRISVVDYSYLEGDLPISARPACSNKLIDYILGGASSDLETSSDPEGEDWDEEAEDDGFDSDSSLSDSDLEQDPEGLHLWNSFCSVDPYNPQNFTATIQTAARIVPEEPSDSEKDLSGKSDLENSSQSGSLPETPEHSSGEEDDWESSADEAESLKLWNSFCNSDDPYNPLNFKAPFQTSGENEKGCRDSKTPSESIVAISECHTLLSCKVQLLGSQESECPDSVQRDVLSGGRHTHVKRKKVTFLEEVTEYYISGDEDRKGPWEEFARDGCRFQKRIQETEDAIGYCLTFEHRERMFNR
T2 sequence (P36873 whole entry partner, the tested form may be a part): as the sequence (P36873 whole entry) above
T1 sequence (O75807 325-636): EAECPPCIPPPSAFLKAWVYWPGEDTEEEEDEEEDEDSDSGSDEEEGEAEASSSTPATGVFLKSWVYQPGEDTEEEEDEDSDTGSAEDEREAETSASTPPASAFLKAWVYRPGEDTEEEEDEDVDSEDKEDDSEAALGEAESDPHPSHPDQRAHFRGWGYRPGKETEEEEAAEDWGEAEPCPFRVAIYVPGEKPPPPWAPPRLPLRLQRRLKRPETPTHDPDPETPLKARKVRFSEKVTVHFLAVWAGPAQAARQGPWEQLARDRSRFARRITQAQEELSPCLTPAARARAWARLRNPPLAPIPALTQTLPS
T1 sequence (P36873 whole entry partner, the tested form may be a part): as the sequence (P36873 whole entry) above

In assay [1], `N=C(N)N/N=C/c1cc(Cl)c(Cl)c(Cl)c1` [Example 3, (E)-2-(3,4,5-trichlorobenzylidene)hydrazine-1-carboximidamide] gave a Kd of 3.93 µM.
Regarding `N=C(N)N/N=C/c1ccc(F)cc1Cl` [Example 2, (E)-2-(2-chloro-4-fluorobenzylidene)hydrazine-1-carboximidamide], the Kd in assay [2] worked out at 0.143 µM; in assay [1], 5 µM. Besides, the “difference in affinities between PPP1R15A-PP1 and PPP1R15B-PP1” value in assay [2] (from SPR KD values) is recorded as “greater than 30 fold”.
`COC[C@@H]([C@H](O)[C@H](O)C(=O)NCC[C@H](C)c1nc(/C=C/C[C@@H]2O[C@]3(C[C@@H](O)[C@@H]2C)O[C@H]([C@H](C[C@H](O)[C@H](C)[C@H](O)[C@H](C)/C=C(C)/C(C)=C/C=C/C(C)=C\C#N)OC)[C@H](OP(=O)(O)O)C3(C)C)co1)N(C)C` [calyculin A, reference compound]: the “inhibition of PP1c in enzymatic assay” value in assay [3] is reported as “a catalytic inhibitor of PP1”.
For the compound `O=C(/C=C/c1ccccc1)NC(NC(=S)Nc1cccc2cccnc12)C(Cl)(Cl)Cl` (centres unmarked) [Salubrinal], the equilibrium dissociation constant (Kd) in assay [2], in assay [1] and in assay [4] was over 20 µM throughout.

Usually Kd stands for the free concentration of one partner at which half of the binding sites on the other are occupied at equilibrium, for simple one-to-one binding.
